Data: PubChem BioAssay AID1918995 (Molecular Pharmacology Branch, DTP, NCI, 2023)

System: 324938-238-R-J1-PDC complex spheroid growth, % test/control
Test: Anticancer human tumor 324938-238-R-J1-PDC patient-derived bladder carcinoma cell line growth inhibition [AhR]
Details: for IC50: curve of first compound; for viability, T/C: stronger effect = lower value
Procedure, shortened: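 Agents were dosed in half-log steps down from roughly clinical Cmax, or from 10 microM where Cmax was unknown, alone and with AhR antagonists. Read-out: percent test/control growth of tumor spheroids containing HUVEC and MSC stromal cells.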
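Also: spheroids exposed to agents for seven days before viability read.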

CC(C)CC(NC(=O)C(Cc1ccccc1)NC(=O)c1cnccn1)B(O)O (stereo not given) + Cc1ccccc1N=Nc1ccc(NC(=O)c2ccnn2C)c(C)c1
IC50 (second compound 0.1 µM): 5.19 nM | IC50 (second compound 0.316 µM): 4.9 nM | IC50 (second compound 1 µM): 4.83 nM | IC50 (second compound 3.16 µM): 4.38 nM | IC50 (second compound 10 µM): 4.51 nM | viability, T/C (second compound 0.1 µM, first compound 0.000949 µM): 97.5% | viability, T/C (second compound 0.1 µM, first compound 0.003 µM): 94.3% | viability, T/C (second compound 0.1 µM, first compound 0.00949 µM): 1.29% | viability, T/C (second compound 0.1 µM, first compound 0.03 µM): 0.07% | viability, T/C (second compound 0.1 µM, first compound 0.0949 µM): 0.09% | viability, T/C (second compound 0.1 µM, first compound 0.3 µM): 0.27% | viability, T/C (second compound 0.316 µM, first compound 0.000949 µM): 92.3% | viability, T/C (second compound 0.316 µM, first compound 0.003 µM): 84.6% | viability, T/C (second compound 0.316 µM, first compound 0.00949 µM): 3.23% | viability, T/C (second compound 0.316 µM, first compound 0.03 µM): 0.04% | viability, T/C (second compound 0.316 µM, first compound 0.0949 µM): 0.05% | viability, T/C (second compound 0.316 µM, first compound 0.3 µM): 0.19% | viability, T/C (second compound 1 µM, first compound 0.000949 µM): 95.1% | viability, T/C (second compound 1 µM, first compound 0.003 µM): 84.1% | viability, T/C (second compound 1 µM, first compound 0.00949 µM): 1.49% | viability, T/C (second compound 1 µM, first compound 0.03 µM): 0.04% | viability, T/C (second compound 1 µM, first compound 0.0949 µM): 0.07% | viability, T/C (second compound 1 µM, first compound 0.3 µM): 0.17% | viability, T/C (second compound 3.16 µM, first compound 0.000949 µM): 84.2% | viability, T/C (second compound 3.16 µM, first compound 0.003 µM): 73.4% | viability, T/C (second compound 3.16 µM, first compound 0.00949 µM): 2.32% | viability, T/C (second compound 3.16 µM, first compound 0.03 µM): 0.06% | viability, T/C (second compound 3.16 µM, first compound 0.0949 µM): 0.06% | viability, T/C (second compound 3.16 µM, first compound 0.3 µM): 0.19% | viability, T/C (second compound 10 µM, first compound 0.000949 µM): 85.9% | viability, T/C (second compound 10 µM, first compound 0.003 µM): 76.1% | viability, T/C (second compound 10 µM, first compound 0.00949 µM): 2.47% | viability, T/C (second compound 10 µM, first compound 0.03 µM): 0.24% | viability, T/C (second compound 10 µM, first compound 0.0949 µM): 0.36% | viability, T/C (second compound 10 µM, first compound 0.3 µM): 0.32%

COc1cc(Nc2ncc3c(n2)-c2ccc(Cl)cc2C(c2c(F)cccc2OC)=NC3)ccc1C(=O)O + Cc1ccccc1N=Nc1ccc(NC(=O)c2ccnn2C)c(C)c1
IC50 (second compound 0.1 µM): 139 nM | IC50 (second compound 0.316 µM): 101 nM | IC50 (second compound 1 µM): 85.5 nM | IC50 (second compound 3.16 µM): 66.2 nM | IC50 (second compound 10 µM): 71 nM | viability, T/C (second compound 0.1 µM, first compound 0.0316 µM): 72.5% | viability, T/C (second compound 0.1 µM, first compound 0.1 µM): 55.7% | viability, T/C (second compound 0.1 µM, first compound 0.316 µM): 36.1% | viability, T/C (second compound 0.1 µM, first compound 1 µM): 31.9% | viability, T/C (second compound 0.1 µM, first compound 3.16 µM): 31.6% | viability, T/C (second compound 0.1 µM, first compound 10 µM): 39.4% | viability, T/C (second compound 0.316 µM, first compound 0.0316 µM): 66.7% | viability, T/C (second compound 0.316 µM, first compound 0.1 µM): 50.1% | viability, T/C (second compound 0.316 µM, first compound 0.316 µM): 32.8% | viability, T/C (second compound 0.316 µM, first compound 1 µM): 32.5% | viability, T/C (second compound 0.316 µM, first compound 3.16 µM): 33.8% | viability, T/C (second compound 0.316 µM, first compound 10 µM): 34.3% | viability, T/C (second compound 1 µM, first compound 0.0316 µM): 65.1% | viability, T/C (second compound 1 µM, first compound 0.1 µM): 47.6% | viability, T/C (second compound 1 µM, first compound 0.316 µM): 31.6% | viability, T/C (second compound 1 µM, first compound 1 µM): 31.2% | viability, T/C (second compound 1 µM, first compound 3.16 µM): 30.4% | viability, T/C (second compound 1 µM, first compound 10 µM): 34.8% | viability, T/C (second compound 3.16 µM, first compound 0.0316 µM): 57.4% | viability, T/C (second compound 3.16 µM, first compound 0.1 µM): 45.9% | viability, T/C (second compound 3.16 µM, first compound 0.316 µM): 27.5% | viability, T/C (second compound 3.16 µM, first compound 1 µM): 28.7% | viability, T/C (second compound 3.16 µM, first compound 3.16 µM): 27.5% | viability, T/C (second compound 3.16 µM, first compound 10 µM): 30.1% | viability, T/C (second compound 10 µM, first compound 0.0316 µM): 60.4% | viability, T/C (second compound 10 µM, first compound 0.1 µM): 49.1% | viability, T/C (second compound 10 µM, first compound 0.316 µM): 34.8% | viability, T/C (second compound 10 µM, first compound 1 µM): 36.9% | viability, T/C (second compound 10 µM, first compound 3.16 µM): 37% | viability, T/C (second compound 10 µM, first compound 10 µM): 41.7%
